#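 48-hour exposure; five concentrations; linearly interpolated endpoints. Abbreviation: GI50, concentration required for 50% inhibition of growth. The concentration for full growth arrest is given as TGI.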
# What was measured:
# Test in all cases: NCI-60 cell line screen, 48 h
# [1] = tested on: 786-0 renal
# [2] = tested on: CAKI-1 renal
# [3] = tested on: CCRF-CEM leukemia
# [4] = tested on: EKVX NSCLC
# [5] = tested on: HOP-62 NSCLC
# [6] = tested on: HOP-92 NSCLC
# [7] = tested on: IGROV1 ovarian
# [8] = tested on: OVCAR-5 ovarian
# [9] = tested on: SK-MEL-5 melanoma
# [10] = tested on: T-47D breast
SMILES,GI50 [1],TGI [1],GI50 [2],TGI [2],GI50 [3],GI50 [4],TGI [4],GI50 [5],TGI [5],GI50 [6],TGI [6],GI50 [7],TGI [7],GI50 [8],TGI [8],GI50 [9],TGI [9],GI50 [10],TGI [10],TGI [3]
Nc1nn2cc(F)cnc2c1C(=O)Nc1cncc(F)c1N1CCC(C(=O)N2CCN(C3COC3)CC2)CC1,0.277 µM,> 100 µM,0.235 µM,3.16 µM,0.0332 µM,0.512 µM,> 100 µM,0.676 µM,3.98 µM,0.653 µM,13 µM,0.464 µM,3.04 µM,0.616 µM,> 100 µM,0.428 µM,1.77 µM,2.04 µM,> 100 µM,
CC1(C)C(C#N)C1C1=C(N2CCOCC2)[C@]2(C)C(OC(=O)c3ccccc3)CC[C@@H]2C1 (some centres not stated),,> 100 µM,,> 100 µM,,,> 100 µM,,> 100 µM,,> 100 µM,,> 100 µM,,> 100 µM,,> 100 µM,,> 100 µM,> 100 µM
N#Cc1c(N)nc(N2CCOCC2)c(C#N)c1-c1ccncc1,95.7 µM,> 100 µM,49.1 µM,> 100 µM,> 100 µM,66.7 µM,> 100 µM,29.6 µM,> 100 µM,31.7 µM,> 100 µM,12.3 µM,39.5 µM,27 µM,> 100 µM,> 100 µM,> 100 µM,12.6 µM,51.7 µM,> 100 µM
COc1cccc(C2CC(C)(O)Oc3cc4c(cc32)OCO4)c1O (configuration not stated),,> 100 µM,,> 100 µM,,,99.4 µM,,79.7 µM,,92.5 µM,,> 100 µM,,> 95.7 µM,,> 61.3 µM,,> 100 µM,> 95.9 µM
N#Cc1c(NC(=O)NCc2ccccc2)sc2c1CCCCC2,0.761 µM,> 100 µM,0.659 µM,> 100 µM,0.357 µM,0.461 µM,> 100 µM,0.706 µM,> 64.2 µM,0.547 µM,20.9 µM,0.719 µM,> 100 µM,2.05 µM,> 100 µM,0.478 µM,3.6 µM,0.343 µM,> 100 µM,> 100 µM
COc1cccc(CC(C)=C(c2ccc(OCCN(C)C)cc2)c2ccc(OCCN(C)C)cc2)c1,0.606 µM,1.27 µM,3.96 µM,8.27 µM,0.693 µM,4.09 µM,8.52 µM,2.24 µM,6.92 µM,0.865 µM,4.48 µM,3.98 µM,8.73 µM,3.24 µM,7.35 µM,4.75 µM,9.26 µM,0.681 µM,1.77 µM,2.23 µM
C=C(Cl)C(=CCl)CCC(Br)C(C)(C)Cl (mixture of isomers),,> 10 µM,,> 10 µM,,,> 10 µM,,> 10 µM,,> 10 µM,,> 10 µM,,> 10 µM,,> 10 µM,,> 10 µM,6.89 µM
O=C(Nc1ccc(Nc2ccncc2)cc1)c1ccc([N+](=O)[O-])cc1,3.47 µM,14.6 µM,6.02 µM,19.3 µM,3.37 µM,11.2 µM,> 61.2 µM,13.7 µM,29 µM,4.96 µM,21.7 µM,13 µM,36.9 µM,9.82 µM,> 44.7 µM,4.89 µM,21.4 µM,3.3 µM,20 µM,
O=[N+]([O-])c1ccc2[nH]c(=S)[nH]c(=S)c2c1,,> 100 µM,,> 100 µM,,,> 100 µM,,> 100 µM,,> 100 µM,,> 100 µM,,> 100 µM,,> 100 µM,,> 100 µM,> 100 µM
Cc1cc(C)c2c(n1)sc1c(Nc3ccc(Cl)cc3)ncnc12,< 0.01 µM,,< 0.01 µM,> 27.6 µM,< 0.01 µM,,,< 0.01 µM,,0.0288 µM,,> 100 µM,> 100 µM,< 0.0125 µM,> 100 µM,< 0.0141 µM,> 100 µM,0.0299 µM,> 100 µM,> 100 µM
CC(=O)Nc1ccc(S(=O)(=O)N2C(=O)CCC2C(=O)Nc2ccc(Br)cc2)cc1 (configuration not stated),2.2 µM,7.27 µM,4.37 µM,17.7 µM,1.49 µM,,,2.4 µM,11.3 µM,1.13 µM,5.25 µM,2.28 µM,10.9 µM,4.86 µM,21.7 µM,1.56 µM,4.87 µM,0.532 µM,5.93 µM,11 µM
Cc1ccc(SC2c3ccc(C)cc3Oc3nc(N)c(C#N)c(N)c32)cc1 (configuration not stated),1.72 µM,3.16 µM,,,2.18 µM,1.59 µM,3.09 µM,1.79 µM,3.4 µM,1.45 µM,3.23 µM,,,1.76 µM,3.45 µM,1.64 µM,3.1 µM,1.8 µM,5.01 µM,6.77 µM
Cc1cc(Cl)cc(OCCn2cc(F)cn2)c1-c1nc(N)nc2c1CN(C(=O)NCC(C)(F)F)C2,3.18 µM,> 100 µM,0.755 µM,> 100 µM,0.0507 µM,,,0.622 µM,> 100 µM,0.192 µM,0.728 µM,0.138 µM,> 100 µM,2.66 µM,> 100 µM,0.179 µM,> 100 µM,0.235 µM,> 100 µM,> 100 µM
CCOC(=O)C1=CN(C)C=C(C(=O)OCC)C1c1cc(Br)c(OCC)c(OC)c1,> 100 µM,> 100 µM,53 µM,> 100 µM,> 100 µM,,,> 100 µM,> 100 µM,20.5 µM,> 100 µM,> 100 µM,> 100 µM,> 100 µM,> 100 µM,49.2 µM,> 100 µM,23.5 µM,> 100 µM,> 100 µM
NC(=O)/C=C/C(=O)c1c(Cl)cccc1Cl,2.14 µM,,0.971 µM,2.5 µM,,,,2.63 µM,,0.574 µM,1.94 µM,1.39 µM,2.8 µM,1.74 µM,3.41 µM,1.4 µM,2.7 µM,0.191 µM,0.408 µM,

# Reference: PubChem BioAssay (NCI)
